Assay results as given in US10253002B2, “Compounds and methods of treating infections” (Neoculi Pty Ltd., priority 2013, dated 2019).

System: VRE
Assay: Broth microdilution MIC, Example 7 (NCL812 and analogues)
Type: cell-based, Enterococcus spp.
Details: isolate VRE 1; 24 hours; 1st and 2nd replicate rows
Procedure: (§1) Minimum inhibitory concentrations (μg/ml) were determined using the broth microdilution method recommended by the Clinical and Laboratory Standards Institute (CLSI). MIC breakpoints were determined by visual assessment and then confirmed using an ELISA plate reader, measuring absorbance levels at 600 nm. Bacterial growth (turbidity) in the wells with antimicrobial was compared with the amount of growth (turbidity) in the growth-control well (containing no antimicrobial). All isolates were tested in duplicate, if there was a difference of greater than one two-fold dilution in the results, the test was repeated a third time. The purity of the isolates was closely monitored during testing by subculturing the prepared bacterial inoculum onto SBA (sheep blood agar). […] The MIC50, MIC20 and MIC range (minimum and maximum) were calculated for each of the bacterial groups.
(§2) MICs were determined against two MRSA strains, two VRE strains and one strain each of E. coli and Pseudomonas aeruginosa.

Row | SMILES | MIC (μg/ml) at 24 hours, VRE 1 [µg/mL]
1 | NC(=O)N/N=C/c1ccccc1F [NCL048] | >128
2 | N#Cc1ccc(/C=N/NC(N)=O)cc1 [NCL049] | >128
3 | N#Cc1ccccc1/C=N/NC(N)=O [NCL050] | >128
4 | N#Cc1cccc(/C=N/NC(N)=O)c1 [NCL051] | >128
5 | NC(=O)N/N=C/c1cccc(Cl)c1 [NCL055] | >128
6 | NC(=O)N/N=C/c1ccc(F)cc1 [NCL056] | >128
7 | NC(=O)N/N=C/c1cccc(F)c1 [NCL057] | >128
8 | COc1ccc(/C=N/NC(N)=O)cc1 [NCL058] | >128
9 | COc1cccc(/C=N/NC(N)=O)c1 [NCL059] | >128
10 | NC(=O)N/N=C/c1ccccc1C(F)(F)F [NCL060] | >128
11 | FC(F)(F)c1ccc(C=NNC(=S)NN=Cc2ccc(C(F)(F)F)cc2)cc1 [NCL063] | >128

Same assay, conditions: isolate VRE 2; 24 hours; 1st and 2nd replicate rows

Row | SMILES | MIC (μg/ml) at 24 hours, VRE 2 [µg/mL]
12 | NC(=O)N/N=C/c1ccccc1F [NCL048] | >128
13 | N#Cc1ccc(/C=N/NC(N)=O)cc1 [NCL049] | >128
14 | N#Cc1ccccc1/C=N/NC(N)=O [NCL050] | >128
15 | N#Cc1cccc(/C=N/NC(N)=O)c1 [NCL051] | >128
16 | NC(=O)N/N=C/c1cccc(Cl)c1 [NCL055] | >128
17 | NC(=O)N/N=C/c1ccc(F)cc1 [NCL056] | >128
18 | NC(=O)N/N=C/c1cccc(F)c1 [NCL057] | >128
19 | COc1ccc(/C=N/NC(N)=O)cc1 [NCL058] | >128
20 | COc1cccc(/C=N/NC(N)=O)c1 [NCL059] | >128
21 | NC(=O)N/N=C/c1ccccc1C(F)(F)F [NCL060] | >128
22 | FC(F)(F)c1ccc(C=NNC(=S)NN=Cc2ccc(C(F)(F)F)cc2)cc1 [NCL063] | >128

System: Pseudomonas aeruginosa
Assay: as above
Type: cell-based
Details: 24 hours; 1st and 2nd replicate rows

Row | SMILES | MIC (μg/ml) at 24 hours, P. aeruginosa [µg/mL]
23 | NC(=O)N/N=C/c1ccccc1F [NCL048] | >128
24 | N#Cc1ccc(/C=N/NC(N)=O)cc1 [NCL049] | >128
25 | N#Cc1ccccc1/C=N/NC(N)=O [NCL050] | >128
26 | N#Cc1cccc(/C=N/NC(N)=O)c1 [NCL051] | >128
27 | NC(=O)N/N=C/c1cccc(Cl)c1 [NCL055] | >128
28 | NC(=O)N/N=C/c1ccc(F)cc1 [NCL056] | >128
29 | NC(=O)N/N=C/c1cccc(F)c1 [NCL057] | >128
30 | COc1ccc(/C=N/NC(N)=O)cc1 [NCL058] | >128
31 | COc1cccc(/C=N/NC(N)=O)c1 [NCL059] | >128
32 | NC(=O)N/N=C/c1ccccc1C(F)(F)F [NCL060] | >128
33 | FC(F)(F)c1ccc(C=NNC(=S)NN=Cc2ccc(C(F)(F)F)cc2)cc1 [NCL063] | >128

System: Escherichia coli
Assay: as above
Type: cell-based
Details: 24 hours; 1st and 2nd replicate rows

Row | SMILES | MIC (μg/ml) at 24 hours, E. coli [µg/mL]
34 | NC(=O)N/N=C/c1ccccc1F [NCL048] | >128
35 | N#Cc1ccc(/C=N/NC(N)=O)cc1 [NCL049] | >128
36 | N#Cc1ccccc1/C=N/NC(N)=O [NCL050] | >128
37 | N#Cc1cccc(/C=N/NC(N)=O)c1 [NCL051] | >128
38 | NC(=O)N/N=C/c1cccc(Cl)c1 [NCL055] | >128
39 | NC(=O)N/N=C/c1ccc(F)cc1 [NCL056] | >128
40 | NC(=O)N/N=C/c1cccc(F)c1 [NCL057] | >128
41 | COc1ccc(/C=N/NC(N)=O)cc1 [NCL058] | >128
42 | COc1cccc(/C=N/NC(N)=O)c1 [NCL059] | >128
43 | NC(=O)N/N=C/c1ccccc1C(F)(F)F [NCL060] | >128
44 | FC(F)(F)c1ccc(C=NNC(=S)NN=Cc2ccc(C(F)(F)F)cc2)cc1 [NCL063] | >128

System: MRSA
Assay: as above
Type: cell-based, Staphylococcus aureus
Details: isolate MRSA 1; 24 hours; 1st and 2nd replicate rows
Procedure: as §1, §2

Row | SMILES | MIC (μg/ml) at 24 hours, MRSA 1 [µg/mL]
45 | NC(=O)N/N=C/c1ccccc1F [NCL048] | >128
46 | N#Cc1ccc(/C=N/NC(N)=O)cc1 [NCL049] | >128
47 | N#Cc1ccccc1/C=N/NC(N)=O [NCL050] | >128
48 | N#Cc1cccc(/C=N/NC(N)=O)c1 [NCL051] | >128
49 | NC(=O)N/N=C/c1cccc(Cl)c1 [NCL055] | >128
50 | NC(=O)N/N=C/c1ccc(F)cc1 [NCL056] | >128
51 | NC(=O)N/N=C/c1cccc(F)c1 [NCL057] | >128
52 | COc1ccc(/C=N/NC(N)=O)cc1 [NCL058] | >128
53 | COc1cccc(/C=N/NC(N)=O)c1 [NCL059] | >128
54 | NC(=O)N/N=C/c1ccccc1C(F)(F)F [NCL060] | >128
55 | FC(F)(F)c1ccc(C=NNC(=S)NN=Cc2ccc(C(F)(F)F)cc2)cc1 [NCL063] | >128

Same assay, conditions: isolate MRSA 2; 24 hours; 1st and 2nd replicate rows

Row | SMILES | MIC (μg/ml) at 24 hours, MRSA 2 [µg/mL]
56 | NC(=O)N/N=C/c1ccccc1F [NCL048] | >128
57 | N#Cc1ccc(/C=N/NC(N)=O)cc1 [NCL049] | >128
58 | N#Cc1ccccc1/C=N/NC(N)=O [NCL050] | >128
59 | N#Cc1cccc(/C=N/NC(N)=O)c1 [NCL051] | >128
60 | NC(=O)N/N=C/c1cccc(Cl)c1 [NCL055] | >128
61 | NC(=O)N/N=C/c1ccc(F)cc1 [NCL056] | >128
62 | NC(=O)N/N=C/c1cccc(F)c1 [NCL057] | >128
63 | COc1ccc(/C=N/NC(N)=O)cc1 [NCL058] | >128
64 | COc1cccc(/C=N/NC(N)=O)c1 [NCL059] | >128
65 | NC(=O)N/N=C/c1ccccc1C(F)(F)F [NCL060] | >128
66 | FC(F)(F)c1ccc(C=NNC(=S)NN=Cc2ccc(C(F)(F)F)cc2)cc1 [NCL063] | >128
